Patent US20230107983A1, “COMPOUND ISOLATED FROM TORILIDIS FRUCTUS, AND ANTICANCER PHARMACEUTICAL COMPOSITION CONTAINING SAME AS ACTIVE INGREDIENT” (PHARMA-GENE CO., LTD., priority 2020, published 2023)

Legend:
[1] = Change in mouse weight, A549 xenograft, oral administration; type: in vivo, nude mouse; parameters: Change in mouse weight: unit not given here; conditions: once a day
Method: (§1) The Tr-9 was dissolved in sterile PBS and 1 mM Tr-9 200 µℓ was orally administered per mouse once a day, and all animals were weighed immediately before the start of drug (Tr-9) administration and 10 times in total from day 2 to day 23 after cancer cell transplantation (Table 1).
(§2) In Table 1 above, data values are the mean ± standard deviation. After measuring the body weight, the animals were killed using CO2 gas, and the tumor was separated and the size was measured in 3 directions using a vernier caliper for each animal. Then, the change in tumor size was expressed as a calculated value of (length × width × height)/2 (Table 2).

[2] = test system: human lung cancer cells (A549); assay: Nude mouse xenograft model of human lung cancer cells, oral administration; type: in vivo; parameters: Tumor size increase (Vt—V0): unit not given here
Method: Anticancer activity against lung cancer according to the oral administration of Tr-9 was confirmed through a nude mouse xenograft model of human lung cancer cells (A549). Specific pathogen-free (SPF) nude mice of the BALB/C strain were used as the animal model. Animals were bred in the animal room of Daedeok Campus of Hannam University maintained at a temperature of 23±3° C., relative humidity of 55±15%, ventilation frequency of 10-20 times/hr, lighting time of 12 hours(lights on at 8 am and off at 8 pm) and illuminance of 150 to 300 Lux.
(§3) For cancer cell transplantation, all cells were collected and counted on the last day of culture, and the concentration of human lung cancer cell line A549 was adjusted to 5×10^6 cells/ml using PBS. The adjusted cell culture solution was injected subcutaneously into the auxiliary region between the right scapula and chest wall at 0.2 ml (1×10^6 cells/mouse) per mouse.
as §1, §2
(§4) Tumor size increase is (Δt)= Vt—Vo, wherein Vt is the value of measuring the tumor size by date, and Vo is the value of measuring the initial tumor size.

[3] = test system: human lung cancer cells (A549); assay: Nude mouse xenograft model of human lung cancer cells, intraperitoneal administration; type: in vivo
Method: Anticancer activity against lung cancer according to the intraperitoneal administration of Tr-9 was confirmed through a nude mouse xenograft model of human lung cancer cells (A549). In Example 4, it was carried out using the same animal model and method as the oral administration, except that it was administered intraperitoneally.
Specific pathogen-free (SPF) nude mice of the BALB/C strain were used as the animal model. Animals were bred in the animal room of Daedeok Campus of Hannam University maintained at a temperature of 23±3° C., relative humidity of 55±15%, ventilation frequency of 10-20 times/hr, lighting time of 12 hours(lights on at 8 am and off at 8 pm) and illuminance of 150 to 300 Lux.
as §3
The Tr-9 was dissolved in sterile PBS and 1 mM Tr-9 200 µℓ was intraperitoneally administered per mouse once a day, and all animals were weighed immediately before the start of drug (Tr-9) administration and 10 times in total from day 2 to day 23 after cancer cell transplantation (Table 4).
In Table 4 above, data values are the mean ± standard deviation. After measuring the body weight, the animals were killed using CO2 gas, and the tumor was separated and the size was measured in 3 directions using a vernier caliper for each animal. Then, the change in tumor size was expressed as a calculated value of (length × width × height)/2 (Table 4).
as §4

[4] = intraperitoneal once a day, Day 23

C/C=C(/C)C(=O)O[C@@H]1C[C@H](C)[C@H]2CC(=O)C(C)=C2C[C@@H]1C(C)(C)OC(C)=O [Torilin, torilin, reference compound]
Change in mouse weight ([1]; 0 Day after drug treatment): 100.0 ±0.0 | Change in mouse weight ([1]; 2 Days after drug treatment): 100.0 ±3.0 | Change in mouse weight ([1]; 5 Days after drug treatment): 97.2 ±2.5 | Change in mouse weight ([1]; 7 Days after drug treatment): 99.5 ±3.5 | Change in mouse weight ([1]; 9 Days after drug treatment): 105.7 ±7.0 | Change in mouse weight ([1]; 12 Days after drug treatment): 101.0 ±6.2 | Change in mouse weight ([1]; 14 Days after drug treatment): 101.8 ±5.5 | Change in mouse weight ([1]; 16 Days after drug treatment): 103.9 ±5.8 | Change in mouse weight ([1]; 19 Days after drug treatment): 101.1 ±5.8 | Change in mouse weight ([1]; 21 Days after drug treatment): 102.9 ±6.0 | Change in mouse weight ([1]; 23 Days after drug treatment): 105.0 ±7.1 | difference in body weight according to the administration of the drugs ([1]; day 2 to day 23): almost no difference in body weight | Tumor size increase (Vt—V0) ([2]; oral once a day, Day 0): 0.0±0.0 | Tumor size increase (Vt—V0) ([2]; oral once a day, Day 2): 11.4±11.7 | Inhibition rate (tumor size increase) ([2]; oral once a day, Day 2, vs control): 5.8% | Tumor size increase (Vt—V0) ([2]; oral once a day, Day 5): 18.1±9.4 | Inhibition rate (tumor size increase) ([2]; oral once a day, Day 5, vs control): 10.8% | Tumor size increase (Vt—V0) ([2]; oral once a day, Day 7): 28.6±3.0 | Inhibition rate (tumor size increase) ([2]; oral once a day, Day 7, vs control): 11.7% | Tumor size increase (Vt—V0) ([2]; oral once a day, Day 9): 42.0±9.8 | Inhibition rate (tumor size increase) ([2]; oral once a day, Day 9, vs control): 20.9% | Inhibition rate (tumor size increase) ([2]; oral once a day, Day 12, vs control): 27.0% | Tumor size increase (Vt—V0) ([2]; oral once a day, Day 14): 134.6±37.6 | Inhibition rate (tumor size increase) ([2]; oral once a day, Day 14, vs control): 26.0% | Tumor size increase (Vt—V0) ([2]; oral once a day, Day 16): 211.8±32.9 | Inhibition rate (tumor size increase) ([2]; oral once a day, Day 16, vs control): 27.0% | Tumor size increase (Vt—V0) ([2]; oral once a day, Day 19): 362.2±64.2 | Inhibition rate (tumor size increase) ([2]; oral once a day, Day 19, vs control): 31.5% | Tumor size increase (Vt—V0) ([2]; oral once a day, Day 21): 493.4±82.6 | Inhibition rate (tumor size increase) ([2]; oral once a day, Day 21, vs control): 33.0% | Tumor size increase (Vt—V0) ([2]; oral once a day, Day 23): 646.9±108.8 | Tumor weight at Day 23 ([2]; oral once a day, Day 23): 0.745 ± 0.196 g | Tumor weight reduction rate compared to control group ([2]; oral once a day, Day 23): 29.5% | Inhibition rate (tumor size increase) ([2]; oral once a day, Day 23, vs control): 34.1% | tumor size compared to the control group ([2]; oral, after day 19): statistically significantly smaller | Tumor size increase (Vt−V0) ([3]; intraperitoneal once a day, Day 0, table title: Change in tumor size): 0.0±0.0 | Tumor size increase (Vt−V0) ([3]; intraperitoneal once a day, Day 2, table title: Change in tumor size): 13.2±13.2 | Inhibition rate (tumor size increase) ([3]; intraperitoneal once a day, Day 2, vs control): 2.9% | Tumor size increase (Vt−V0) ([3]; intraperitoneal once a day, Day 5, table title: Change in tumor size): 19.91±0.4 | Inhibition rate (tumor size increase) ([3]; intraperitoneal once a day, Day 5, vs control): 4.8% | Tumor size increase (Vt−V0) ([3]; intraperitoneal once a day, Day 7, table title: Change in tumor size): 28.9±12.5 | Inhibition rate (tumor size increase) ([3]; intraperitoneal once a day, Day 7, vs control): 14.7% | Tumor size increase (Vt−V0) ([3]; intraperitoneal once a day, Day 9, table title: Change in tumor size): 38.0±8.1 | Inhibition rate (tumor size increase) ([3]; intraperitoneal once a day, Day 9, vs control): 17.0% | Tumor size increase (Vt−V0) ([3]; intraperitoneal once a day, Day 12, table title: Change in tumor size): 75.1±10.7 | Inhibition rate (tumor size increase) ([3]; intraperitoneal once a day, Day 12, vs control): 14.6% | Tumor size increase (Vt−V0) ([3]; intraperitoneal once a day, Day 14, table title: Change in tumor size): 127.0±25.8 | Inhibition rate (tumor size increase) ([3]; intraperitoneal once a day, Day 14, vs control): 15.6% | Tumor size increase (Vt−V0) ([3]; intraperitoneal once a day, Day 16, table title: Change in tumor size): 210.5±44.8 | Inhibition rate (tumor size increase) ([3]; intraperitoneal once a day, Day 16, vs control): 19.9% | Tumor size increase (Vt−V0) ([3]; intraperitoneal once a day, Day 19, table title: Change in tumor size): 394.8±93.5 | Inhibition rate (tumor size increase) ([3]; intraperitoneal once a day, Day 19, vs control): 22.9% | Tumor size increase (Vt−V0) ([3]; intraperitoneal once a day, Day 21, table title: Change in tumor size): 525.2±99.1 | Inhibition rate (tumor size increase) ([3]; intraperitoneal once a day, Day 21, vs control): 22.7% | Tumor weight at Day 23 [3, 4]: 0.97 ± 0.183 g | Tumor weight reduction rate compared to control group [3, 4]: 28.6% | Tumor size increase (Vt−V0) ([3]; intraperitoneal once a day, Day 23, table title: Change in tumor size): 695.0±110.6 | Inhibition rate (tumor size increase) ([3]; intraperitoneal once a day, Day 23, vs control): 27.0% | tumor size compared to the control group ([3]; intraperitoneal, after day 19): statistically significantly smaller
